# Patent US20030105595A1, “Chi square tests for gene expression” (priority 2001, published 2003)
# Experiments:
# Test in all cases: multi-sample expression analysis, band intensity
# Assay type in all cases: in vivo
# Settings in all cases: Pooled
# band b1i0_51.7 = test system: band b1i0_51.7
# Source text: (§1) To practice the invention, one skilled in the art obtains a source of biological samples, as well as expression information about the biological samples, i.e., expression information relative to one or more genes or polypeptides encoded therein. Data is collected for a particular phenotype appearing within a given population under study, whereby expression of that phenotype is to be determined within the biological sample under study. The phenotype is correlated to a specific genotype, which is then represented as a band with a given intentity, thus indicative of gene expression levels, and is then compared to control samples. Alternatively, the response of a gene to dosage with one or more drugs is determined by band intensity. The standard deviation from the mean (StdDev) is calculated for the control samples, and is fit to functional form in the following equation: […]
# (§2) A multi-sample expression analysis was run using the program described in Example 1. For each drug run, only runs for genes producing bands with a p-value<10^−5 in at least 2 of the following 3 comparisons were selected: low dose versus vehicle, high dose versus vehicle and low dose versus high dose. […] Since clusters found using all 13K bands included some of the best 2K bands, it was concluded that no essential signal was lost (see FIGS. 3 and 4). […] A comparison using the same analytic tests on only the best 2K bands. It can be seen that the Chi Square metric provides a better distinction between low and high doses than the correlation metric, which is not able to distinguish between the low dose and the high dose (see FIG. 6). The low-dose/high dose statistical variation is more pronounced when only the best 2K bands are selected.
# band b1i0_53.0 = test system: band b1i0_53.0
# Source text: as §1, §2
# band b1i0_54.5 = test system: band b1i0_54.5
# Source text: as §1, §2
# band b1i0_57.4 = test system: band b1i0_57.4
# Source text: as §1, §2
# band b1i0_60.7 = test system: band b1i0_60.7
# Source text: as §1, §2
# band b1i0_62.5 = test system: band b1i0_62.5
# Source text: as §1, §2
# band b1i0_63.7 = test system: band b1i0_63.7
# Source text: as §1, §2
# band b1i0_69.4 = test system: band b1i0_69.4
# Source text: as §1, §2
structure (smiles),measurement,setting,value
CC(=O)[C@@]1(O)CC[C@H]2[C@@H]3C=C(Cl)C4=CC(=O)[C@@H]5C[C@@H]5[C@]4(C)[C@H]3CC[C@@]21C [Cyproterone],band intensity b1i0_51.7,"band b1i0_51.7; High dose, 1d",35.07
same,band intensity b1i0_51.7,"band b1i0_51.7; High dose, 3d",32.34
same,band intensity b1i0_51.7,"band b1i0_51.7; High dose, 7d",22.63
same,band intensity b1i0_51.7,"band b1i0_51.7; High dose, 14d",19.9
same,band intensity b1i0_51.7,"band b1i0_51.7; Low dose, 1d",19.27
same,band intensity b1i0_51.7,"band b1i0_51.7; Low dose, 3d",21.87
same,band intensity b1i0_51.7,"band b1i0_51.7; Low dose, 7d",12.77
same,band intensity b1i0_53.0,"band b1i0_53.0; High dose, 1d",93.39
same,band intensity b1i0_53.0,"band b1i0_53.0; High dose, 3d",99.72
same,band intensity b1i0_53.0,"band b1i0_53.0; High dose, 7d",99.01
same,band intensity b1i0_53.0,"band b1i0_53.0; High dose, 14d",40.97
same,band intensity b1i0_53.0,"band b1i0_53.0; Low dose, 1d",111.6
same,band intensity b1i0_53.0,"band b1i0_53.0; Low dose, 3d",99.85
same,band intensity b1i0_53.0,"band b1i0_53.0; Low dose, 7d",99.01
same,band intensity b1i0_54.5,"band b1i0_54.5; High dose, 1d",98.48
same,band intensity b1i0_54.5,"band b1i0_54.5; High dose, 3d",80.83
same,band intensity b1i0_54.5,"band b1i0_54.5; High dose, 7d",81.21
same,band intensity b1i0_54.5,"band b1i0_54.5; High dose, 14d",69.78
same,band intensity b1i0_54.5,"band b1i0_54.5; Low dose, 1d",94.41
same,band intensity b1i0_54.5,"band b1i0_54.5; Low dose, 3d",93.73
same,band intensity b1i0_54.5,"band b1i0_54.5; Low dose, 7d",98.2
same,band intensity b1i0_57.4,"band b1i0_57.4; High dose, 1d",1105
same,band intensity b1i0_57.4,"band b1i0_57.4; High dose, 3d",1021
same,band intensity b1i0_57.4,"band b1i0_57.4; High dose, 7d",1105
same,band intensity b1i0_57.4,"band b1i0_57.4; High dose, 14d",775.5
same,band intensity b1i0_57.4,"band b1i0_57.4; Low dose, 1d",1285
same,band intensity b1i0_57.4,"band b1i0_57.4; Low dose, 3d",1338
same,band intensity b1i0_57.4,"band b1i0_57.4; Low dose, 7d",1437
same,band intensity b1i0_60.7,"band b1i0_60.7; High dose, 1d",53.9
same,band intensity b1i0_60.7,"band b1i0_60.7; High dose, 3d",46.42
same,band intensity b1i0_60.7,"band b1i0_60.7; High dose, 7d",73.61
same,band intensity b1i0_60.7,"band b1i0_60.7; High dose, 14d",57.48
same,band intensity b1i0_60.7,"band b1i0_60.7; Low dose, 1d",76.15
same,band intensity b1i0_60.7,"band b1i0_60.7; Low dose, 3d",72.42
same,band intensity b1i0_60.7,"band b1i0_60.7; Low dose, 7d",80.22
same,band intensity b1i0_62.5,"band b1i0_62.5; High dose, 1d",49.19
same,band intensity b1i0_62.5,"band b1i0_62.5; High dose, 3d",64.93
same,band intensity b1i0_62.5,"band b1i0_62.5; High dose, 7d",71.82
same,band intensity b1i0_62.5,"band b1i0_62.5; High dose, 14d",148.3
same,band intensity b1i0_62.5,"band b1i0_62.5; Low dose, 1d",62.41
same,band intensity b1i0_62.5,"band b1i0_62.5; Low dose, 3d",59.37
same,band intensity b1i0_62.5,"band b1i0_62.5; Low dose, 7d",70.85
same,band intensity b1i0_63.7,"band b1i0_63.7; High dose, 1d",51.36
same,band intensity b1i0_63.7,"band b1i0_63.7; High dose, 3d",111.8
same,band intensity b1i0_63.7,"band b1i0_63.7; High dose, 7d",154.7
same,band intensity b1i0_63.7,"band b1i0_63.7; High dose, 14d",18.52
same,band intensity b1i0_63.7,"band b1i0_63.7; Low dose, 1d",68.2
same,band intensity b1i0_63.7,"band b1i0_63.7; Low dose, 3d",110.4
same,band intensity b1i0_63.7,"band b1i0_63.7; Low dose, 7d",146
same,band intensity b1i0_69.4,"band b1i0_69.4; High dose, 1d",254.9
same,band intensity b1i0_69.4,"band b1i0_69.4; High dose, 3d",250.7
same,band intensity b1i0_69.4,"band b1i0_69.4; High dose, 7d",317.9
same,band intensity b1i0_69.4,"band b1i0_69.4; High dose, 14d",528.3
same,band intensity b1i0_69.4,"band b1i0_69.4; Low dose, 1d",243.2
same,band intensity b1i0_69.4,"band b1i0_69.4; Low dose, 3d",270.7
same,band intensity b1i0_69.4,"band b1i0_69.4; Low dose, 7d",326.3
Nc1ccc(Cc2ccc(N)cc2)cc1 [Methylenedianiline],band intensity b1i0_51.7,"band b1i0_51.7; High dose, 1d",23.55
same,band intensity b1i0_51.7,"band b1i0_51.7; High dose, 3d",27.88
same,band intensity b1i0_51.7,"band b1i0_51.7; High dose, 7d",23.35
same,band intensity b1i0_51.7,"band b1i0_51.7; High dose, 14d",33.18
same,band intensity b1i0_51.7,"band b1i0_51.7; Low dose, 1d",22.28
same,band intensity b1i0_51.7,"band b1i0_51.7; Low dose, 3d",27.01
same,band intensity b1i0_51.7,"band b1i0_51.7; Low dose, 7d",21.37
same,band intensity b1i0_51.7,"band b1i0_51.7; Low dose, 14d",71.33
same,band intensity b1i0_53.0,"band b1i0_53.0; High dose, 1d",101.1
same,band intensity b1i0_53.0,"band b1i0_53.0; High dose, 3d",98.11
same,band intensity b1i0_53.0,"band b1i0_53.0; High dose, 7d",113.8
same,band intensity b1i0_53.0,"band b1i0_53.0; High dose, 14d",60.92
same,band intensity b1i0_53.0,"band b1i0_53.0; Low dose, 1d",103.4
same,band intensity b1i0_53.0,"band b1i0_53.0; Low dose, 3d",101.1
same,band intensity b1i0_53.0,"band b1i0_53.0; Low dose, 7d",111.5
same,band intensity b1i0_53.0,"band b1i0_53.0; Low dose, 14d",55.87
same,band intensity b1i0_54.5,"band b1i0_54.5; High dose, 1d",104.9
same,band intensity b1i0_54.5,"band b1i0_54.5; High dose, 3d",106
same,band intensity b1i0_54.5,"band b1i0_54.5; High dose, 7d",82.18
same,band intensity b1i0_54.5,"band b1i0_54.5; High dose, 14d",51.09
same,band intensity b1i0_54.5,"band b1i0_54.5; Low dose, 1d",123.7
same,band intensity b1i0_54.5,"band b1i0_54.5; Low dose, 3d",111.4
same,band intensity b1i0_54.5,"band b1i0_54.5; Low dose, 7d",86.49
same,band intensity b1i0_54.5,"band b1i0_54.5; Low dose, 14d",62.55
same,band intensity b1i0_57.4,"band b1i0_57.4; High dose, 1d",1230
same,band intensity b1i0_57.4,"band b1i0_57.4; High dose, 3d",1407
same,band intensity b1i0_57.4,"band b1i0_57.4; High dose, 7d",1184
same,band intensity b1i0_57.4,"band b1i0_57.4; High dose, 14d",455.9
same,band intensity b1i0_57.4,"band b1i0_57.4; Low dose, 1d",1376
same,band intensity b1i0_57.4,"band b1i0_57.4; Low dose, 3d",1433
same,band intensity b1i0_57.4,"band b1i0_57.4; Low dose, 7d",1280
same,band intensity b1i0_57.4,"band b1i0_57.4; Low dose, 14d",789.2
same,band intensity b1i0_60.7,"band b1i0_60.7; High dose, 1d",67.13
same,band intensity b1i0_60.7,"band b1i0_60.7; High dose, 3d",85.72
same,band intensity b1i0_60.7,"band b1i0_60.7; High dose, 7d",82.44
same,band intensity b1i0_60.7,"band b1i0_60.7; High dose, 14d",158.3
same,band intensity b1i0_60.7,"band b1i0_60.7; Low dose, 1d",66.66
same,band intensity b1i0_60.7,"band b1i0_60.7; Low dose, 3d",78.99
same,band intensity b1i0_60.7,"band b1i0_60.7; Low dose, 7d",79.32
same,band intensity b1i0_60.7,"band b1i0_60.7; Low dose, 14d",139.6
same,band intensity b1i0_62.5,"band b1i0_62.5; High dose, 1d",59.42
same,band intensity b1i0_62.5,"band b1i0_62.5; High dose, 3d",70.64
same,band intensity b1i0_62.5,"band b1i0_62.5; High dose, 7d",71.55
same,band intensity b1i0_62.5,"band b1i0_62.5; High dose, 14d",185.7
same,band intensity b1i0_62.5,"band b1i0_62.5; Low dose, 1d",63.43
same,band intensity b1i0_62.5,"band b1i0_62.5; Low dose, 3d",69.92
same,band intensity b1i0_62.5,"band b1i0_62.5; Low dose, 7d",86.01
same,band intensity b1i0_62.5,"band b1i0_62.5; Low dose, 14d",207.6
same,band intensity b1i0_63.7,"band b1i0_63.7; High dose, 1d",85.1
same,band intensity b1i0_63.7,"band b1i0_63.7; High dose, 3d",153.8
same,band intensity b1i0_63.7,"band b1i0_63.7; High dose, 7d",144.3
same,band intensity b1i0_63.7,"band b1i0_63.7; High dose, 14d",2.073
same,band intensity b1i0_63.7,"band b1i0_63.7; Low dose, 1d",24.89
same,band intensity b1i0_63.7,"band b1i0_63.7; Low dose, 3d",84.1
same,band intensity b1i0_63.7,"band b1i0_63.7; Low dose, 7d",287.2
same,band intensity b1i0_63.7,"band b1i0_63.7; Low dose, 14d",0.3527
same,band intensity b1i0_69.4,"band b1i0_69.4; High dose, 1d",262.2
same,band intensity b1i0_69.4,"band b1i0_69.4; High dose, 3d",329.9
same,band intensity b1i0_69.4,"band b1i0_69.4; High dose, 7d",290.2061
same,band intensity b1i0_69.4,"band b1i0_69.4; High dose, 14d",512.9
same,band intensity b1i0_69.4,"band b1i0_69.4; Low dose, 1d",349.4
same,band intensity b1i0_69.4,"band b1i0_69.4; Low dose, 3d",349.3
same,band intensity b1i0_69.4,"band b1i0_69.4; Low dose, 7d",303.1
same,band intensity b1i0_69.4,"band b1i0_69.4; Low dose, 14d",714.8
